In ChEMBL document CHEMBL1140624, “Improved biochemical strategies for targeted delivery of taxoids” (Bioorg Med Chem, 2007):

Species on record: Mus musculus
Assay: Toxicity assessed as reduction of body weight in mouse
Assay type: organism-based
Settings: in vivo

With CC(=O)O[C@H]1C(=O)[C@@]2(C)[C@H]([C@H](OC(=O)c3ccccc3)[C@]3(O)C[C@H](OC(=O)[C@H](OC(=O)CN(C)CC(=O)NCCOCCOCCOCCNC(=O)CCC(NC(=O)c4ccc(NCc5cnc6nc(N)[nH]c(=O)c6n5)cc4)C(=O)O)[C@@H](NC(=O)c4ccccc4)c4ccccc4)C(C)=C1C3(C)C)[C@]1(OC(C)=O)CO[C@@H]1C[C@@H]2O (stereo partly specified) as the compound, how does the Activity read?
Its Activity is “Non-toxic”.
